The source of these data is patent publication US11466047B2, “Cyclic di-nucleotide compounds as sting agonists” (Merck Sharp & Dohme Corp., priority 2017, dated 2022).

pEC50: −log10 of the molar value. Read-outs that look alike come from different tables or passages of the source.

The target of assay [1] is full-length HAQ STING (Homo sapiens (Human), UniProt Q86WV6, G230A/H232R/R293Q/R71H). As to the kind of experiment: 3H-cGAMP filtration binding assay (HAQ STING). The conditions noted are these: competition with tritiated cGAMP ligand, HAQ STING membrane. The source says:
The ability of compounds to bind STING is quantified by the ability to compete with tritiated cGAMP ligand for human STING receptor membrane using a radioactive filter-binding assay. The binding assay employs STING receptor obtained from Hi-Five cell membranes overexpressing full-length HAQ STING prepared in-house and tritiated cGAMP ligand also purified in-house.
The ability of compounds to bind STING is quantified by their ability to compete with tritiated cGAMP ligand for human STING receptor membrane using a radioactive filter-binding assay. The binding assay employs STING receptor obtained from Trichoplusia ni cell membranes (T.ni; Expression Systems, cat #94-002F, www.expressionsystems.com) overexpressing full-length HAQ STING and tritiated cGAMP ligand.
The basic HAQ STING filtration assay protocol is as follows:
The compounds were serially titrated by the Hamilton STARPlus CORE in a 96-well plate (Greiner, #651201) using a 1:3 ten-point dose response format. After compound preparation, a 2.2 ug/ml working concentration of STING membrane (SEQ. ID. No. 1) was prepared by diluting concentrated membrane into assay buffer (lx PBS; Invitrogen #SH30028.02) and douncing 7× using a manual tissue homogenizer (Wheaton, #357546). 148 uL of prepared membrane was then manually added to each well of a 96-well deep-well polypropylene plate (Fisher Scientific, #12-566-121). Following membrane addition, 2 uL of either titrated test compound, DMSO control (Sigma #276855), or cold cGAMP control was added to the appropriate wells using a BIOMEK FX. Compound and membrane then preincubated for 60 min at RT to allow compound binding to equilibrate. Following equilibration, 8 nM of [^3H]c-GAMP ligand was prepared by diluting into assay buffer, and 50 uL of this working stock was then manually added to each well of the assay plate. Plates were then incubated at RT for 60 min, and the contents of each assay plate were then filtered through a 96-well GF/B filter plate (PerkinElmer, #6005250) using a TOMTEC MACH III Cell Harvester equipped with 20 mM HEPES buffer (Fisher Scientific, #BP299500). The filter plates were then dried at 55° C. for 30 min using a pressurized oven before 30 uL of ULTIMA GOLD F scintillate was added to each well. Tritium levels for each reaction well were then measured using a PerkinElmer TopCount plate reader.
(§1) After normalization to controls, the percent activity for each compound concentration was calculated by measuring the amount of remaining radioactivity. The plot of percent activity versus the log of compound concentration was fit with a 4-parameter dose response equation to calculate EC50 values.

Assay [2] addresses full-length WT STING (Homo sapiens (Human), UniProt Q86WV6, H232R). Put plainly: 3H-cGAMP filtration binding assay (WT STING). The conditions noted are these: WT STING membrane. On the procedure: The ability of compounds to bind STING is quantified by their ability to compete with tritiated cGAMP ligand for human STING receptor membrane using a radioactive filter-binding assay. The binding assay employs STING receptor obtained from Trichoplusia ni cell membranes (T.ni; Expression Systems, cat #94-002F, overexpressing full-length WT STING and tritiated cGAMP ligand.
The basic WT STING filtration assay protocol is as follows:
16 nM of [^3H] c-GAMP ligand was prepared by diluting into assay buffer, and 50 uL of this working stock was manually added to each well of the assay plate. After ligand addition, 2 uL of either titrated test compound, DMSO control (Sigma #276855), or cold cGAMP control was added to the appropriate wells using a BIOMEK FX. The serially titrated compound was prepared on a Hamilton STARPlus CORE in a 96-well plate (Greiner, #651201) using a 1:3 ten-point dose response format. Following compound addition, a 2.2 ug/ml working concentration of STING membrane (SEQ. ID. No. 3) was prepared by diluting concentrated membrane into assay buffer (1×PBS; Invitrogen #SH30028.02) and douncing 7× using a manual tissue homogenizer (Wheaton, #357546). 148 uL of this prepared membrane was then manually added to each well of a 96-well deep-well polypropylene plate (Fisher Scientific, #12-566-121). Compound, ligand, and membrane then incubated for 60 min at RT before the contents of each assay plate were filtered through a 96-well GF/B filter plate (PerkinElmer, #6005250) using a TOMTEC MACH III Cell Harvester equipped with 20 mM HEPES buffer (Fisher Scientific, #BP299500). The filter plates were then dried at 55° C. for 30 min using a pressurized VWR oven before 30 uL of ULTIMA GOLD F scintillate was added to each well. Tritium levels for each reaction well were then measured using a PerkinElmer TopCount plate reader.
as §1

Assay [3] deals with THP1 cells. Put plainly: IFN-β secretion in THP1 cell culture (5 h). Format: cell-based, human. As to conditions: 30 μM compound, relative to 2′3′-cGAMP at 30 μM; for activation at 30 µM: Homo sapiens, THP-1, 5 h, read-out: % Effect at 30 μM relative to 2′3′-cGAMP. The procedure:
The ability of compounds to stimulate the secretion of interferon-beta from THP1 cells was measured using a human IFN-β AlphaLISA kit (Perkin Elmer, Cat. No. AL265F). The basic protocol is as follows:
A Labcyte Echo 550 acoustic dispenser was used to transfer 120 nL of compound dissolved in DMSO into the wells of an empty, sterile 384-well microplate, (Corning, Cat. No. 3712). THP1 cells (American Type Culture Collection, Cat. No. TIB202) previously frozen in Recovery Medium (Life Technologies, Cat. No. 12648-010) were thawed and immediately diluted 10-fold into 37° C. assay medium (RPMI 1640+L-Glutamine & phenol red, Life Technologies, Cat. No. 11875-085; 0.5% heat inactivated fetal bovine serum, Sigma Aldrich, Cat. No. F4135; 1 mM Sodium Pyruvate, Life Technologies, Cat. No. 11360-070; lx non-essential amino acids; Life Technologies, Cat. No. 11140-050). The cell viability and count was ascertained using a Beckman Coulter V-Cell XR cell counter. The cell suspension was centrifuged at 200×g for 5 min at RT. Cells were resuspended to a density of 0.8×10^6/mL in 37° C. assay medium. Subsequent liquid transfers were performed using either a Matrix electronic multichannel pipette or an Agilent Bravo Automated Liquid Handling Platform.
The assay was started by dispensing 40 μL of the previously prepared cell suspension into the wells of the plate containing compounds. After 5 h incubation at 37° C., 5% CO2 in a humidified atmosphere, the plate of cells and compounds was centrifuged at 200×g for 5 min at RT. From each well, 5 μL of supernatant was transferred into corresponding wells of a white 384-well plate (Perkin Elmer, Cat. No. 6005620). To these supernatant-containing wells was added 10 μL of 5× Anti-Analyte Acceptor beads (50 μg/mL of AlphaLISA HiBlock Buffer) and incubated for 30 min at RT while shaking on an orbital plate shaker. To each well was added 10 μL of 5× Biotinylated Antibody Anti-analyte (5 nM in AlphaLISA HiBlock Buffer) and incubated on an orbital plate shaker for 60 min at RT or overnight at 4° C. To each well was added 25 μL of 2×SA-Donor beads (80 μg/mL in AlphaLISA HiBlock Buffer) and incubated for 30-45 min at RT in the dark while shaking on an orbital plate shaker. The plate was then read on a Perkin Elmer Envision (λex=680 nm, λem=570 nm). The percent effect of the AlphaLISA signal at each compound concentration was calculated based on 30 uM cGAMP positive controls and 0.3% DMSO negative controls. The plot of percent effect versus the log of compound concentration was fit with a 4-parameter concentration response equation to calculate EC50 values. The test compounds were tested at concentrations 30000, 10000, 3333, 1111, 370.4, 123.4, 41.2, 13.7, 4.6, and 1.5 nM with 0.3% residual DMSO. The control compound, cGAMP was tested at concentrations 100000, 33333, 11111, 3704, 1235, 412, 137, 46, and 15 nM with 0.3% residual DMSO.
Compounds of the disclosure were evaluated for IFN-β secretion in THP1 cell culture as described above. The following table tabulates the biological data for these compounds as percent activation relative to 2′3′-cGAMP at the 30 μM concentration.

[4] abbreviates: competition with tritiated cGAMP ligand, read-out: EC50.
[5] abbreviates: EC50, competition with tritiated cGAMP ligand.

Chain of full-length HAQ STING (Q86WV6 whole entry, looked up, stated change not applied): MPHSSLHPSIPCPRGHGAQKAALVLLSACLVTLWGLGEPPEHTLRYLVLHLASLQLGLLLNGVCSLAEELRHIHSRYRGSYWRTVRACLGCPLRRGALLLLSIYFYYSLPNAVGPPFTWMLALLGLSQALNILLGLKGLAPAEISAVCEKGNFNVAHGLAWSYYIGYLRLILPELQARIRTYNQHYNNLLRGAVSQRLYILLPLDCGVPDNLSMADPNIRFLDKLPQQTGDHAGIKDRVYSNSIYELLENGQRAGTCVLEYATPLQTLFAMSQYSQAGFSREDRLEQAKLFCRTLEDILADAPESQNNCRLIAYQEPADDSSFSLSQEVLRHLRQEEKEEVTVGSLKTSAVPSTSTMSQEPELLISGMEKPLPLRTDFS
Chain of full-length WT STING (Q86WV6 whole entry, looked up, stated change not applied): as above

In general, pEC50 refers to the negative decadic logarithm of the EC50, by convention in mol/L. With `Nc1nc2c(ncn2[C@@H]2O[C@@H]3COP(=S)(S)O[C@H]4C[C@H](c5cnc6c(N)ncnn56)O[C@@H]4COP(O)(=S)O[C@@H]2C3)c(=O)[nH]1` (single isomer, unassigned) [Example 8], the negative logarithm of the EC50 (pEC50) in assay [1] is 8.15; in assay [2] (setting [4]) it was 7.89. In addition, the “% Effect at 30 μM relative to 2′3′-cGAMP” value in assay [3] is 110%.
Regarding `Nc1nc2c(ncn2[C@@H]2O[C@@H]3COP(=S)(S)O[C@H]4C[C@H](c5cnc6c(N)ncnn56)O[C@@H]4COP(O)(=S)O[C@@H]2C3)c(=O)[nH]1` (single isomer, unassigned) [Example 7], the negative-log EC50 (pEC50) in assay [1] and in assay [2] (setting [4]) was greater than 9.00 each time. The “% Effect at 30 μM relative to 2′3′-cGAMP” value in assay [3] was determined as 173%.
With `Nc1nc2c(ncn2[C@@H]2O[C@@H]3COP(=S)(S)O[C@H]4[C@H](F)[C@H](n5cnc6c(N)ncnc65)O[C@@H]4COP(O)(=S)O[C@@H]2[C@@H]3F)c(=O)[nH]1` (single isomer, unassigned) [Example 2], the pEC50 is 8.70 in assay [1] and 8.05 in assay [2] (setting [5]). In addition, in assay [3], the “% Effect at 30 μM relative to 2′3′-cGAMP” value was found to be 175%.
In the case of `Nc1nc2c(ncn2[C@@H]2O[C@@H]3COP(=S)(S)O[C@H]4C[C@H](n5cnc6c(N)ncnc65)O[C@@H]4COP(O)(=S)O[C@@H]2C3)c(=O)[nH]1` (single isomer, unassigned) [Example 3], the negative logarithm of the EC50 (pEC50) in assay [1] was 8.70; in assay [2] (setting [4]), 8.40. In addition, the activation at 30 µM in assay [3] was determined as 128%.
For `Nc1nc2c(ncn2[C@@H]2S[C@@H]3COP(=S)(S)O[C@H]4[C@H](F)[C@H](n5cnc6c(N)ncnc65)O[C@@H]4COP(=O)(O)O[C@@H]2[C@@H]3O)c(=O)[nH]1` (stereo partly drawn) [Example 20, 2-amino-9-[(5R,7R,8R,12aR,14R,15S,15aR,16S)-14-(6-amino-9H-purin-9-yl)-15-fluoro-10,16-dihydroxy-10-oxido-2-sulfanyl-2-sulfidooctahydro-12H-5,8-methanofuro[3,2-l][1,3,9,11,6,2,10]tetraoxathiadiphosphacyclotetradecin-7-yl]-1,9-dihydro-6H-purin-6-one] the same measures were 9.00, 8.52 and 137%.
On to `Nc1nc2c(ncn2[C@@H]2O[C@@H]3COP(=S)(S)O[C@H]4C[C@H](n5ccc6c(N)ncnc65)O[C@@H]4COP(O)(=S)O[C@@H]2C3)c(=O)[nH]1` (single isomer, unassigned) [Example 6], for which the negative logarithm of the EC50 (pEC50) in assay [1] was 7.55; in assay [2] (setting [4]), 6.94. In addition, in assay [3], the “% Effect at 30 μM relative to 2′3′-cGAMP” value is 91%.
Consider `Nc1nc2c(ncn2[C@@H]2O[C@@H]3COP(=S)(S)O[C@H]4[C@H]5OC[C@]4(COP(=O)(O)O[C@@H]2[C@H]3F)O[C@H]5n2cnc3c(N)ncnc32)c(=O)[nH]1` (stereo partly drawn) [Example 17, 2-amino-9-[(5R,7R,8S,12aR,14R,15R,15aS,18S)-14-(6-amino-9H-purin-9-yl)-18-fluoro-10-hydroxy-10-oxido-2-sulfanyl-2-sulfidohexahydro-14H-15,12a-(epoxymethano)-5,8-methanofuro[3,2-l][1,3,6,9,11,2,10]pentaoxadiphosphacyclotetradecin-7(12H)-yl]-1,9-dihydro-6H-purin-6-one], for which, in assay [1], the pEC50 is 7.82. The activation at 30 µM in assay [3] was 145%.
In assay [2] (setting [5]), `Nc1nc2c(ncn2[C@@H]2O[C@@H]3COP(O)(=S)O[C@H]4C[C@H](n5cnc6c(N)ncnc65)O[C@@H]4COP(=S)(S)O[C@@H]2C3)c(=O)[nH]1` (single isomer, unassigned) [Example 10] showed a pEC50 of 8.22. The “% Effect at 30 μM relative to 2′3′-cGAMP” value in assay [3] came to 91%.
`Nc1nc2c(ncn2[C@@H]2O[C@@H]3COP(=S)(S)O[C@H]4C[C@H](n5cnc6c(=O)[nH]cnc65)O[C@@H]4COP(O)(=S)O[C@@H]2C3)c(=O)[nH]1` (single isomer, unassigned) [Example 24]: in assay [2] (setting [4]), the negative logarithm of the EC50 (pEC50) is 7.72. For the same compound, the “% Effect at 30 μM relative to 2′3′-cGAMP” value in assay [3] is on record as 168%.
